# Data published in patent publication US12599597B2, “Substituted N-benzhydrylacetamide inhibitors of jumanji domain histone demethylases for the treatment of cancer” (University of Kentucky Research Foundation, priority 2020, dated 2026).
# Columns and labels:
# JMJD1A (KDM3A) = target: T1, JMJD1A (KDM3A) (Homo sapiens, UniProt Q9Y4C1); test: Histone demethylase assay / KDM3A enzymatic activity in vitro; assay type: biochemical
# T1 sequence (Q9Y4C1 1-1321): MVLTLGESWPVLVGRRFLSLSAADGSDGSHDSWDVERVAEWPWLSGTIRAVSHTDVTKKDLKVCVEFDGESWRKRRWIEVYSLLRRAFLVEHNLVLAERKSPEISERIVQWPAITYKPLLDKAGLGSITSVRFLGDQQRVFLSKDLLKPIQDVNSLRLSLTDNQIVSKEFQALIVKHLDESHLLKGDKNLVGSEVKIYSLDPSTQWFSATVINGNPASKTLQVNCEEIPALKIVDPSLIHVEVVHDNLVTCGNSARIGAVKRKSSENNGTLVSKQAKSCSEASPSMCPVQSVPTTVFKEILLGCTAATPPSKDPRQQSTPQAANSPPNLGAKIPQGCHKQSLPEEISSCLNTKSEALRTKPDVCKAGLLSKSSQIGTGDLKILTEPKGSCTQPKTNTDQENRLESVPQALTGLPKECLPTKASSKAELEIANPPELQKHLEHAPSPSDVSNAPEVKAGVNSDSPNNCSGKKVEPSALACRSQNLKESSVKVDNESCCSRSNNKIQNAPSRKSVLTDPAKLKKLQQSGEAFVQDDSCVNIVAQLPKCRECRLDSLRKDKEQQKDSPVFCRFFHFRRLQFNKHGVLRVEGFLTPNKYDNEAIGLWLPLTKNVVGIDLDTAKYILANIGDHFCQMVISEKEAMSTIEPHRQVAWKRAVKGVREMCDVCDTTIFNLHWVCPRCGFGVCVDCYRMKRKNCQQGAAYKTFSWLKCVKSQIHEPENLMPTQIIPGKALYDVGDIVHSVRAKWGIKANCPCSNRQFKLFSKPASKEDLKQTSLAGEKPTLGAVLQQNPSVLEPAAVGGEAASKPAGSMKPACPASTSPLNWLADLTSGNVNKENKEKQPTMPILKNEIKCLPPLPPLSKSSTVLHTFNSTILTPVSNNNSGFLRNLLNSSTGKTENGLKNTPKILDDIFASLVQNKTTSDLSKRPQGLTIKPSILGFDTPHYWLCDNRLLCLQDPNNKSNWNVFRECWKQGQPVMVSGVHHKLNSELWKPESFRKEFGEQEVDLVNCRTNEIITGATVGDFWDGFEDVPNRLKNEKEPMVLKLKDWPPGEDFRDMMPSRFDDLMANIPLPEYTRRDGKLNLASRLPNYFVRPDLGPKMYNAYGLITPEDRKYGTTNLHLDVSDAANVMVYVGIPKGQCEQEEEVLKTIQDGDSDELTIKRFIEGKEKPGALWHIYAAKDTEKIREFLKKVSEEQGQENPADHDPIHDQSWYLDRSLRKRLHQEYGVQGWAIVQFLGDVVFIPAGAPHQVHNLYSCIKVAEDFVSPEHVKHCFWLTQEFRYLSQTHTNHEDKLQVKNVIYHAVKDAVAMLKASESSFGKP
# Source text: Histone Demethylase Assay
# To further examine the effects of 58B1 on histone demethylase, we screened a panel of purified histone demethylases was screened.
# Identification of KDM3A as a target of CBA-1. KDM3A regulated H3K9Me^2 and underwent significant upregulation in CRC. To test if CBA-1 targeted KDM3A, a biotinylated analog CBA-B2 (FIG. 7A) was synthesized. […] Knocking-down KDM3A by shRNA inhibited cell proliferation (FIG. 7D) and Wnt target gene expression in LS174T CRC cells (FIG. 7E).
# Repurposing drugs as CBA-1 analogs and KDM3 inhibitors. CBA-1 is a specific and potent KDM3A inhibitor. As backup candidates, two approved drugs were identified as CBA-1 analogs and KDM3A inhibitors. Based on the docking study (FIGS. 8A-B), the N and OH groups (red color in FIG. 12A) are critical in binding the Mn^2+ in KDM3A. […] A virtual screening was performed and several antibiotics that have similar structures were identified. Two of these antibiotics, clioquinol and nitroxoline (FIG. 12B), indeed inhibited the enzymatic activities of KDM3 (FIGS. 12C and D). These two drugs were tested in LS174T tumor xenograft model in SCID mice. […] Nitroxoline has been used in Europe for over 50 years as an antibiotic. It has anticancer effects, but the mechanism remains unclear.
# Wnt signaling = test: TOPFlash (Wnt) reporter assay in stable HEK293T cell line; assay type: cell-based
# Source text: Wnt signaling is a key target for multiple human cancers, including but not limited to colon cancer, liver cancer, and lung cancer. To identify novel Wnt regulators by high throughput screening, a stable HEK293T cell line containing the TOPFlash reporter was established. Since β-catenin is often activated by mutations in the Wnt pathway, it is important to inhibit Wnt signaling downstream of β-catenin activity. Therefore, the screen was specifically designed to identify Wnt inhibitors that target events downstream of β-catenin. The Wnt signaling was activated by treating cells with lithium chloride to inhibit GSK3 and to stabilize β-catenin, mimicking the constitutively active Wnt signaling in cancer cells. Through this screen, a family of novel Wnt inhibitors that inhibited Wnt signaling at a 0.5-10 μM concentrations (Table 1) was identified.
# After 6 h, the cells were treated with 25 mM LiCl to activate Wnt signaling. The inhibition ratio of each compound was determined (Table 1).
# For the SAR studies, 58B1 (VMS-7-133) was re-synthesized. Additionally, SD70, a commercial KDM4 inhibitor, was both purchased and re-synthesized (VMS-7-175). […] VMS-7-195 is a biotinylated analog of 58B1. […] Specific KDM inhibitors may be used to target specific KDMs, such as KDM3A, which is highly expressed in many human cancers.
# Identification of a CBA-1 as a novel Wnt inhibitor. The present inventors routinely use TOPFlash reporter assay for Wnt inhibitor screening. To mimic the constitutively active Wnt signaling found in CRC cells, Wnt signaling was activated by inhibiting GSK3 and stabilizing β-catenin. From screening in house small-molecule libraries, CBA-1 (FIG. 4) was identified that inhibited Wnt signaling in TOPFlash reporter assay. To validate the screening results, CBA-1 was tested in CRC cells.
# [1] = test system: H3K9Me2 on the promoter of c-Myc gene; test: ChIP assay followed by qPCR; assay type: cell-based
# Source text: CBA-1 increased repressive histone methylation on Wnt target genes. The present inventors reported that mutations in APC or β-catenin N-terminal phosphorylation sites prevented β-catenin degradation in CRC cells. […] Because CBA-1 inhibited Wnt signaling in CRC cells, it was reasonable to assume that it inhibited Wnt signaling downstream of β-catenin, most likely by blocking β-catenin activity in the nucleus. Consequently, the present inventors hypothesized that CBA-1 inhibited Wnt signaling epigenetically by altering chromatin remodeling, and they probed the effects of CBA-1 on histone methylation in CRC cells.
smiles,measurement,setting,value
CCCC(=O)NC(c1ccc(N(CC)CC)cc1)c1cc(Cl)c2cccnc2c1O (centres unmarked) [58B1],inhibition at 10 µM,"JMJD1A (KDM3A); 58B1, 10 μM",99%
same,"KDM3A activity in vitro, dose-response study",JMJD1A (KDM3A); at low micromolar levels,inhibited
same,inhibition,"Wnt signaling; Homo sapiens, HEK-293T, Table 1, HEK293T TOPFlash, 25 mM LiCl after 6 h",95%
same,inhibition at 1 µM,"Wnt signaling; Homo sapiens, HEK-293T, Table 3, Wnt reporter assay at 1 μM, read-out: Percent inhibition at 1 μM",90.9%
same,Wnt signaling in TOPFlash reporter assay,Wnt signaling; screening of in house libraries,inhibited
same,levels of H3K9Me2 on the promoter of c-Myc gene,"[1]; ChIP, qPCR",increased
same,active markers H3K9Ac and H3K4Me^3 on the promoter of Wnt target genes in CRC cells,[1]; expected,decrease
same,repressive marker H3K9Me^2 on the promoter of Wnt target genes in CRC cells,[1]; expected,increase
